Experiments:
[1] = target: human dopamine transporter (DAT) (Homo sapiens (Human), UniProt Q01959); experiment: Scintillation Proximity Assay (SPA) competition binding, human DAT; conditions: recombinant hDAT-CHO membranes, [3H]WIN-35,428
From the text: (§1) Measure of Affinity to the Human Transporters DAT, NET and SERT
In the context of the present invention pKi values (corresponding to the antilogarithm of Ki) are used instead of Ki; pKi are only estimated to be accurate to about 0.3 log unit.
(§2) Scintillation Proximity Assay (SPA) for Human DAT, NET and SERT Binding
(§3) Chinese Hamster Ovary (CHO) cells stably expressing either human DAT (hDAT-CHO) or human NET (hNET-CHO) or human SERT (hSERT-CHO) are used for the membrane preparations for radioligand binding assays using Scintillation proximity Assay (SPA) technique. Each cell line is cultured independently in F-12K Nutrient Mixture containing 10% of Fetal Bovine Serum (FBS) supplemented with 450 μg/ml G-418. When cells are at 70-80% of confluence 3 mM Na Butyrate was added to the cell culture medium. After 24 h of incubation, the culture medium was removed and the cells detached with Versene (DAT) or by scraping (NET and SERT). Cell suspension is centrifuged at 41,000 g for 10 minutes at 4° C. The resultant pellets are re-suspended in 15 volumes of Ice-cold buffer (20 mM HEPES, 145 mM NaCl, 5 mM KCl, pH7.3), homogenized using an Ultra Turrax homogeniser and centrifuged as before. The resultant membrane pellets are re-suspended in up to 15 volume of ice-cold buffer, incubated for 20 minutes at 37-C and centrifuged as before at 41,000 g. The final membrane pellets are re-suspended into 5-10 volumes of ice-cold buffer, dispensed into 0.5 ml aliquots and stored at −80° C. until use. Protein concentration for each preparation is determined using Bio-Rad Protein Assay kit.
(§4) The affinity of the compounds of the invention to the human DAT or NET or SERT transporters is assessed by using the [^3H]WIN-35,428 or [^3H]nisoxetine or [^3H]citalopram binding assays in recombinant human DAT, NET and SERT membranes with the SPA technology. The final assay volume is 50 μL in 384 well plates.
(§5) Briefly, 0.5 μL of test compound in neat DMSO or 0.5 μL of DMSO for total binding (TB) or 0.5 μL of indatraline 1 mM (10 μM final concentration) for non specific binding (NSB) are added to the assay plate. 50 μL of the SPA mixture is added to each well, containing: 30 μg/mL or 10 μg/mL or 25 μg/mL DAT, NET, SERT membranes, respectively; 5 nM [^3H]WIN-35,428 or 5 nM [^3H]nisoxetine or 1 nM [^3H]citalopram, for DAT, NET, SERT assay, respectively; 2.5 mg/mL or 1 mg/mL or 4 mg/mL WGA-PVT SPA beads (PerkinElmer RPNQ0001, for DAT, NET, SERT assay, respectively. All components are added to Assay Buffer (20 mM HEPES pH 7.4, 145 mM NaCl, 5 mM KCl, 0.01% Pluronic F-127). 0.02% BSA was used for DAT binding only. Plates are sealed with Topseal A and centrifuged 1 min, 800 rpm. Plates are loaded into a 1450 Microbeta TriLux (Perkin-Elmer) plate reader and the radioactivity counted after at least 4 hrs or overnight incubation at room temperature. Curve fitting and IC50 estimations are performed using a four parameter model in XLfit (IDBS, Guilford, UK) for Microdoft Excel (Microsoft, Redmond, Wash.).

[2] = target: human norepinephrine transporter (NET) (Homo sapiens (Human), UniProt P23975); experiment: Scintillation Proximity Assay (SPA) competition binding, human NET; conditions: recombinant hNET-CHO membranes, [3H]nisoxetine
From the text: as §1
(§6) Affinity is expressed in terms of inhibition constant (Ki) of the compounds of the invention for DAT, NET and SERT, and it is typically calculated from the IC50 values obtained in competition experiments using Cheng and Prusoff equation (Cheng and Prusoff, Biochem. Pharmacol. 22:3099, 1973). In the context of the present invention pKi values (corresponding to the antilogarithm of Ki) are used instead of Ki; pKi are only estimated to be accurate to about 0.3 log unit.
as §2, §3, §4, §5

[3] = target: human serotonin transporter (SERT) (Homo sapiens (Human), UniProt P31645); experiment: Scintillation Proximity Assay (SPA) competition binding, human SERT; conditions: recombinant hSERT-CHO membranes, [3H]citalopram
From the text: as §1, §6, §2, §3, §4, §5

Sequence of human dopamine transporter (DAT) (Q01959 whole entry): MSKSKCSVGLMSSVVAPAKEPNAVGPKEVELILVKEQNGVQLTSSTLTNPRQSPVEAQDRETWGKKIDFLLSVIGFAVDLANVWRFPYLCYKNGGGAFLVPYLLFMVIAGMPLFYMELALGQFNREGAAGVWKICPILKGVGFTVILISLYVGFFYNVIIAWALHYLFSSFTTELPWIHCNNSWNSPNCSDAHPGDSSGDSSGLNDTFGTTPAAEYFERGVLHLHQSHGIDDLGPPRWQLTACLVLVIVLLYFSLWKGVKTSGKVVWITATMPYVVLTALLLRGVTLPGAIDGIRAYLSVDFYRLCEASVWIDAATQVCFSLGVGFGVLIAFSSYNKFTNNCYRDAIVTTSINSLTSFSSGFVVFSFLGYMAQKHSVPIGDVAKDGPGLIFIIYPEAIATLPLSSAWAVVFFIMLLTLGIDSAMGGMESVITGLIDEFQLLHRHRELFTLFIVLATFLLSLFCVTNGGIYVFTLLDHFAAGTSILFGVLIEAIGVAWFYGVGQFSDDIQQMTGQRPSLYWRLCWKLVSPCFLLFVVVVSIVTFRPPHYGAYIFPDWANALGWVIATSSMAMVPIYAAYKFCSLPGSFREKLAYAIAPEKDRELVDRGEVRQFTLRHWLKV
Sequence of human serotonin transporter (SERT) (P31645 whole entry): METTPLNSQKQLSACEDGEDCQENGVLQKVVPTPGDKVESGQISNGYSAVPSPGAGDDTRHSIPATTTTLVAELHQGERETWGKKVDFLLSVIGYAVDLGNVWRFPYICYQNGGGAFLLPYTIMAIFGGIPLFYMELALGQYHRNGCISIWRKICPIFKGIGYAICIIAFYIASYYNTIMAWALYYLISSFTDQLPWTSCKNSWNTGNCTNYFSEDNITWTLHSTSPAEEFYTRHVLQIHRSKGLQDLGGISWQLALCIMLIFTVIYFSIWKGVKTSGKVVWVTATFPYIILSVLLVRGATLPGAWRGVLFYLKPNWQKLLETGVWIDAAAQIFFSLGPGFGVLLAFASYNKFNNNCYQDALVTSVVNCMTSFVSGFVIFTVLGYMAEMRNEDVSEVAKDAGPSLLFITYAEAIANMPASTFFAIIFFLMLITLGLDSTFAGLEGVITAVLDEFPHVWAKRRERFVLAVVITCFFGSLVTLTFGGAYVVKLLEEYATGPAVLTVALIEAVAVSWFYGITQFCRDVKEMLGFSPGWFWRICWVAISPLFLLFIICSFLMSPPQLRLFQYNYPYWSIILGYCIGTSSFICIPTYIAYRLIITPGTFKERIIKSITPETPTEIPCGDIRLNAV
Sequence of human norepinephrine transporter (NET) (P23975 whole entry): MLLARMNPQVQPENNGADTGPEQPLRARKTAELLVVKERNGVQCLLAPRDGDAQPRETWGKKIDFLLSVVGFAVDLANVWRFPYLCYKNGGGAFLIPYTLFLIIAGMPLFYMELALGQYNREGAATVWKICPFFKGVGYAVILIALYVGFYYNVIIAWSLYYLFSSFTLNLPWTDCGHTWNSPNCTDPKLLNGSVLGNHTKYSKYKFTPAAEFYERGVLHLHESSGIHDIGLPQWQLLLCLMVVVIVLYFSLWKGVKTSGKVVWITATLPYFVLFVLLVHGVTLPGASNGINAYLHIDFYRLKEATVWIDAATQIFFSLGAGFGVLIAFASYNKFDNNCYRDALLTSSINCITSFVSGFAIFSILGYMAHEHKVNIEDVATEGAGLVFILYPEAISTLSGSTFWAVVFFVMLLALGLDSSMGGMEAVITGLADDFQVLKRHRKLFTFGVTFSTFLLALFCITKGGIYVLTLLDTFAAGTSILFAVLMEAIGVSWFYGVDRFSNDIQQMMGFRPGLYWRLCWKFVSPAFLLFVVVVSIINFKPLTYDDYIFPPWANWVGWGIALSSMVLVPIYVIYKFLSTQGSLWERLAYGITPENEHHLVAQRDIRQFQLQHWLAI

SMILES | pIC50 DAT [1] | pIC50 NET [2] | pIC50 SERT [3] | IC50 [3] [µM] | IC50 [2] [µM]
Fc1cccc(Oc2cc(F)c(F)cc2N2CCCC3(CCCNC3)C2)c1 (stereo not drawn) [Example 81, 2-[4,5-difluoro-2-(3-fluorophenoxy)phenyl]-2,8-diazaspiro[5.5]undecane] | 7.18 | 6.25 | 6.71 | – | –
Cl.O=C1CCNCC12CCN(c1nc(Oc3cccc(F)c3)cc(C(F)(F)F)n1)C2 (stereo not drawn) [Example 88, 2-[4-(3-fluorophenoxy)-6-(trifluoromethyl)pyrimidin-2-yl]-2,7-diazaspiro[4.5]decan-10-one hydrochloride] | 8.15 | 6.55 | 4.48 | – | –
O=C1CCNCC12CCN(c1cc(F)c(F)cc1Oc1cccc(F)c1)C2 (stereo not drawn) [Example 86, 2-[4,5-difluoro-2-(3-fluorophenoxy)phenyl]-2,7-diazaspiro[4.5]decan-10-one] | 6.87 | 5.81 | 5.65 | – | –
Cl.Fc1cccc(Oc2cc(C(F)(F)F)nc(N3CCC4(CC3)CNCCO4)n2)c1 [Example 56, 9-[4-(3-fluorophenoxy)-6-(trifluoromethyl)pyrimidin-2-yl]-1-oxa-4,9-diazaspiro[5.5]undecane hydrochloride] | 8.42 | 6.37 | 5.77 | – | –
Cc1c(C#N)cc(N2CCC3(CC2)CNCCO3)cc1Oc1cccc(F)c1.Cl [Example 35, 3-(3-fluorophenoxy)-2-methyl-5-{1-oxa-4,9-diazaspiro[5.5]undecan-9-yl}benzonitrile hydrochloride] | 8.16 | 6.52 | 8.45 | – | –
Cc1cnc(N2CCC3(CC2)CNCCO3)nc1Oc1cccc(F)c1.Cl [Example 54, 9-[4-(3-fluorophenoxy)-5-methylpyrimidin-2-yl]-1-oxa-4,9-diazaspiro[5.5]undecane hydrochloride] | 6.96 | 5.34 | 5.00 | – | –
c1ccc(Cc2cccc(N3CCC4(CC3)CNCCO4)c2)cc1 [Example 33, 9-(3-benzylphenyl)-1-oxa-4,9-diazaspiro[5.5]undecane] | 6.42 | 5.54 | 5.73 | – | –
Cl.Fc1cccc(Oc2cc(C(F)(F)F)nc(N3CCOC4(CCNCC4)C3)n2)c1 [Example 67, 4-[4-(3-fluorophenoxy)-6-(trifluoromethyl)pyrimidin-2-yl]-1-oxa-4,9-diazaspiro[5.5]undecane hydrochloride] | 7.80 | 6.02 | 5.32 | – | –
Cl.Fc1cccc(Oc2cc(F)cc(N3CCC4(CC3)CNCCO4)c2)c1 [Example 9, 9-[3-fluoro-5-(3-fluorophenoxy)phenyl]-1-oxa-4,9-diazaspiro[5.5]undecane hydrochloride] | 8.38 | 6.91 | 7.00 | – | –
CN1CCNCC12CCN(c1nc(Oc3cccc(F)c3)cc(C(F)(F)F)n1)CC2 [Example 74, 9-[4-(3-fluorophenoxy)-6-(trifluoromethyl)pyrimidin-2-yl]-1-methyl-1,4,9-triazaspiro[5.5]undecane] | 8.38 | 6.42 | 4.95 | – | –
Cl.Fc1cccc(Oc2cc(F)c(F)cc2N2CCC3(CC2)CNCCO3)c1 [Example 2, 9-[4,5-difluoro-2-(3-fluorophenoxy)phenyl]-1-oxa-4,9-diazaspiro[5.5]undecane hydrochloride] | 8.14 | 6.03 | 6.49 | – | –
Cl.N#Cc1cc(Oc2cccc(F)c2)nc(N2CCC3(CC2)CNCCO3)c1 [Example 38, 2-(3-fluorophenoxy)-6-{1-oxa-4,9-diazaspiro[5.5]undecan-9-yl}pyridine-4-carbonitrile hydrochloride] | 8.61 | 6.75 | 7.27 | – | –
Cl.N#Cc1c(C(F)(F)F)cc(Oc2cccc(F)c2)nc1N1CCC2(CC1)CNCCO2 [Example 40, 6-(3-fluorophenoxy)-2-{1-oxa-4,9-diazaspiro[5.5]undecan-9-yl}-4-(trifluoromethyl)pyridine-3-carbonitrile hydrochloride] | 7.25 | 6.29 | 5.35 | – | –
COc1ccccc1Oc1cc(C)nc(N2CCC3(CC2)CNCCO3)n1.Cl [Example 52, 9-[4-(2-methoxyphenoxy)-6-methylpyrimidin-2-yl]-1-oxa-4,9-diazaspiro[5.5]undecane hydrochloride] | 5.96 | 5.30 | – | > 100 | –
Cl.FC(F)(F)c1cc(Oc2cccs2)nc(N2CCC3(CC2)CNCCO3)n1 [Example 60, 9-[4-(thiophen-2-yloxy)-6-(trifluoromethyl)pyrimidin-2-yl]-1-oxa-4,9-diazaspiro[5.5]undecane hydrochloride] | 7.34 | 5.75 | 5.83 | – | –
Cl.Fc1cccc(Oc2cccc(N3CCC4(CC3)CNCCO4)n2)c1 [Example 36, 9-[6-(3-fluorophenoxy)pyridin-2-yl]-1-oxa-4,9-diazaspiro[5.5]undecane hydrochloride] | 7.37 | 5.73 | 5.66 | – | –
OC1CNCCC12CCN(c1nc(Oc3cccc(F)c3)cc(C(F)(F)F)n1)C2 (stereo not drawn) [Example 96, 2-[4-(3-fluorophenoxy)-6-(trifluoromethyl)pyrimidin-2-yl]-2,8-diazaspiro[4.5]decan-6-ol] | – | 6.62 | 5.25 | – | –
OC1CNCCC12CCN(c1nc(Oc3cccc(F)c3)cc(C(F)(F)F)n1)C2 (stereo not drawn) [Example 97, 2-[4-(3-fluorophenoxy)-6-(trifluoromethyl)pyrimidin-2-yl]-2,8-diazaspiro[4.5]decan-6-ol] | – | 6.62 | 5.34 | – | –
O[C@H]1CNCC[C@@]12CCN(c1nc(Oc3cccc(F)c3)cc(C(F)(F)F)n1)C2 (single isomer, unassigned) [Example 98, 2-[4-(3-fluorophenoxy)-6-(trifluoromethyl)pyrimidin-2-yl]-2,8-diazaspiro[4.5]decan-6-ol] | – | – | – | 11.2 | 0.437
O[C@H]1CNCC[C@@]12CCN(c1nc(Oc3cccc(F)c3)cc(C(F)(F)F)n1)C2 (single isomer, unassigned) [Example 101, 2-[4-(3-fluorophenoxy)-6-(trifluoromethyl)pyrimidin-2-yl]-2,8-diazaspiro[4.5]decan-6-ol] | – | – | – | 11.2 | 0.263
O[C@H]1CNCC[C@@]12CCN(c1nc(Oc3cccc(F)c3)cc(C(F)(F)F)n1)C2 (single isomer, unassigned) [Example 99, 2-[4-(3-fluorophenoxy)-6-(trifluoromethyl)pyrimidin-2-yl]-2,8-diazaspiro[4.5]decan-6-ol] | – | – | – | 11.2 | 0.245
O[C@H]1CNCC[C@@]12CCN(c1nc(Oc3cccc(F)c3)cc(C(F)(F)F)n1)C2 (single isomer, unassigned) [Example 100, 2-[4-(3-fluorophenoxy)-6-(trifluoromethyl)pyrimidin-2-yl]-2,8-diazaspiro[4.5]decan-6-ol] | – | – | – | 6.92 | 0.398

— patent US9908897B2, “Spirocyclic derivatives” (CHRONOS THERAPEUTICS LIMITED, priority 2014, dated 2018)
